# Reference: patent publication US10655183B2, “Carcinoma diagnosis and treatment based on ODC1 genotype” (THE ARIZONA BOARD OF REGENTS ON BEHALF OF THE UNIVERSITY OF …, priority 2014, dated 2020)
# Columns and labels:
# COX = conditions: cited from earlier work
# patients = conditions: human, in vivo; cited from earlier work
# [1] = cited from earlier work
# rat-tumor model = conditions: DFMO infusion; cited from earlier work
# humans = conditions: low doses of 0.4 g/m^2/day; cited from earlier work
# [2] = tested on: prostoglandin E2 (PGE2) levels in flat mucosa; conditions: 300 mg/day, one month; cited from earlier work
# [3] = tested on: HCT116 colorectal cancer cells; test: HCT116 24 h IC50 and cell viability; assay type: cell-based, human
# [4] = tested on: ODC1 +263 G promoter/intron 1 luciferase plasmid; test: ODC1 promoter/intron 1 luciferase reporter transfection in HCT116 cells; assay type: cell-based, human; conditions: 2 μM NSC176327, 24 h, normalized to time-matched DMSO
# Procedure: (§1) HCT116 cells were transfected in 24-well plates. Cells were seeded at 0.1×10^6 cells/well 24 h prior transfection. Each well was transfected with 0.25 μg of each plasmid and 0.025 μg of Renilla-TK plasmid using 2.5 μL Lipofectamine 2000 reagent (Invitrogen) according to the manufacturer's instructions. The Renilla-TK plasmid was purchased from Promega and used as a transfection efficiency control in all promoter-reporter transfection experiments. For the overexpression experiments, ODC1 pGL3-Basic or Enhancer plasmids were co-transfected with the corresponding plasmid: pcDNA 3.0 empty vector, pcDNA3-c-MYC expression vector (Ricci et al., 2004) (Addgene plasmid 16011), full-length pN3-Sp1FL (Sapetschnig et al., 2004) (Addgene plasmid 24543), pN3-empty control (Addgene plasmid 24544), N-terminal mutate pPac-Sp1 (Courey and Tjian, 1988) (Addgene plasmid 12095) and pPac0 empty vector (Courey and Tjian, 1988) (Addgene plasmid 12094). After 5 h of transfection, the medium was replaced with fresh normal medium in the absence of antibiotics. […] Dual luciferase activities were measured using a Turner Designs TD-20/20 luminometer, as described by the manufacturer, and presented as relative luciferase units. Experiments were performed in triplicate, repeated at least twice, and analyzed for statistical significance (P<0.05) using two-sample t-tests (Microsoft Excel). […]
# [5] = tested on: ODC1 +263 T promoter/intron 1 luciferase plasmid; test: as above; assay type: cell-based, human; conditions: 2 μM NSC176327, 24 h, normalized to time-matched DMSO
# Procedure: as §1
structure (smiles),measurement,setting,value
CC1=C(CC(=O)O)c2cc(F)ccc2/C1=C\c1ccc(S(C)(=O)=O)cc1 [Sulindac sulfone],COX-inhibitory activity,COX,lacks COX-inhibitory activity
"CC1=C(CC(=O)O)c2cc(F)ccc2/C1=C\c1ccc([S+](C)[O-])cc1 (centres unmarked) [sulindac, (Z)-5-fluoro-2-methyl-1-((4 (methylsulfinyl)phenyl)methylene) 1H-indene-3-acetic acid]",patients with mild gastrointestinal effects,patients,~20%
same,patients with skin rash and pruritus,patients,5%
same,fraction of the drug absorbed,[1]; oral administration,about 90%
same,time to peak plasma levels,"[1]; oral, fasting patients",about 2 h
"NCCCC(N)(C(=O)O)C(F)F (racemic) [DFMO, 2-(difluoromethyl)-dl-ornithine]",decrease in tumor putrescine levels,rat-tumor model,90%
same,toxicity,humans,relatively non-toxic
CC(C)Cc1ccc(C(C)C(=O)O)cc1 (centres unmarked) [ibuprofen],PGE2 levels in flat mucosa,[2],significant decrease
COc1ccc2c(c1)c1c(C)c3cnccc3c(C)c1n2CCCN [NSC176327],IC50,[3],2000 nM
same,reduction of ODC1-luciferase reporter expression,[4],43.6%
same,reduction of ODC1-luciferase reporter expression,[5],47.5%
